US20260365641A1, “Aromatic Acetylene Derivative, Preparation Method Therefor, And Use Thereof” (Zhejiang Hisun Pharmaceutical Co., Ltd., priority 2022, published 2026)
pIC50: −log10 of the molar value. ≈ marks a conversion by molar mass, not a printed value.

Tests used:
[1] = biological target: T1, recombinant Pseudomonas aeruginosa LpxC (Pseudomonas aeruginosa, UniProt P47205); assay: Inhibition of enzymatic activity of recombinant Pseudomonas aeruginosa LpxC in vitro; assay type: biochemical; settings: 5 nM LpxC; substrate UDP-3-O—(R-3-hydroxydecanoyl)-GlcNAc; 25 °C, 120 minutes; fluorescamine readout
T1 construct: purchased Signalway Antibody AP74647-2
T1 sequence (P47205 1-303): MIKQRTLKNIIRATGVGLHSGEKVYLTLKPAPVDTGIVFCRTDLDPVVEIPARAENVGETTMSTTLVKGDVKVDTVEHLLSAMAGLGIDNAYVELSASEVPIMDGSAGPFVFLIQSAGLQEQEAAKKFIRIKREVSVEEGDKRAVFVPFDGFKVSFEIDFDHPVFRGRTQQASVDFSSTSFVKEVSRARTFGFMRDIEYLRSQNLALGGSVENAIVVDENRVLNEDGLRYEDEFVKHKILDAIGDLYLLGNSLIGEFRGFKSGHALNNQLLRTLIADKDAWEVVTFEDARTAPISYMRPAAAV
Experimental: The following method was used to determine degrees of inhibition of the compounds of the present invention on the enzymatic activity of recombinant Pseudomonas aeruginosa LpxC in vitro.
The test process was briefly described as follows: the tested compound was first dissolved in DMSO to prepare a 10 mM storage solution. The reaction was carried out in a 96-well microplate. Firstly, 20 μL of recombinant Pseudomonas aeruginosa LpxC (purchased from Signalway Antibody, article number AP74647-2) was added into the wells, and the final concentrations were 5 nM respectively. 5 μL of the compound to be tested was added, diluted in 4-fold, with 8 concentration points, and the concentration range was 0.61-10000 nM. 5 μL of LpxC substrate UDP-3-O—(R-3-hydroxydecanoyl)-GlcNAc (purchased from Biosynth Carbosynth, article number mu75071) was added, wherein a final concentration of the substrate was […], and the substrate was incubated at 25 °C for 120 minutes. Subsequently, 20 μL of 2.0 mg/mL fluorescamine (purchased from sigma aldrich, article number F9015, wherein a solvent was dimethylformamide/acetonitrile (1:1)) was added to the reaction system, mixed evenly and reacted for 10 minutes. Finally, 50 μL of 200 mM sodium phosphate buffer solution (pH 8.0) was added to stop the reaction, and a microplate reader (BMG) was used for reading. An excitation wavelength and an emission wavelength were 390 nm and 495 nm respectively. Compared with the fluorescence intensity ratio of a control group (0.1% DMSO), the percentage inhibition rates of the compounds at each concentration were calculated, and the IC50 values of the compounds were obtained by performing nonlinear regression analysis with logarithmic value of the compound concentration-inhibition rate by GraphPad Prism 5 software, which can be seen in Table 1.

E. coli ATCC 25922 = assay: Antibacterial activity, minimum inhibitory concentration (MIC) in vitro, broth dilution; assay type: cell-based; settings: Escherichia coli, ATCC25922, 5×10^5 cfu/mL, 35 °C, 18-24 hours
Experimental: (§1) The minimum inhibitory concentration (MIC) in vitro was determined according to CLSI's guidelines, and a minimal broth dilution method was used.
(§2) The test process was briefly described as follows: the tested compound was dissolved in DMSO to prepare a storage solution of […], and then prepared into 11 two-fold-diluted 100× high-concentration working liquids (a final concentration of the system was 64 μg/mL to 0.06 μg/mL) by DMSO. Stains (K. pneumoniae ATCC13883, K. pneumoniae ATCC51504 and E. coli ATCC 25922) frozen at −80 °C with glycerin were inoculated to a solid agar culture medium, placed into an incubator for culturing for 18-24 hours at 35 °C to finish the preparation work of the strains. A proper amount of solid plate culture was collected, re-suspended in normal saline, and uniformly mixed. The turbidity of the bacterial suspension was adjusted to a proper turbidity by a turbidity meter, containing about 1×10^8 cfu/mL of bacteria. Then, the turbidity-regulated bacterial suspension was diluted with a test culture medium (type: CAMHIIB, purchased from BD company) to a bacterial concentration of 5×10^5 cfu/mL, thus finishing the preparation of an inoculation solution. 198 μL of the inoculation solution was inoculated into a 96-well plate, and added with 2 μL 100× high concentration working liquid of the compound, then the 96-well plate was placed at 35 °C for culturing for 18-24 hours.

K. pneumoniae ATCC13883 = assay: as above; assay type: cell-based; settings: Klebsiella pneumoniae, 5×10^5 cfu/mL, 35 °C, 18-24 hours
Experimental: as §1, §2

K. pneumoniae ATCC51504 = assay: as above; assay type: cell-based; settings: Klebsiella pneumoniae, 5×10^5 cfu/mL, 35 °C, 18-24 hours
Experimental: as §1, §2

| Compound | pIC50 [1] | MIC (E. coli ATCC 25922) | MIC (K. pneumoniae ATCC13883) | MIC (K. pneumoniae ATCC51504) |
| --- | --- | --- | --- | --- |
| C[C@H](O)c1nccn1Cc1cc(-c2ccc(C#CC3CC4(CCN(C(=O)CO)CC4)C3)cc2)on1 [Example 12, (S)-2-hydroxy-1-(2-((4-(3-((2-(1-hydroxyethyl)-1H-imidazol-1-yl)methyl)isoxazol-5-yl)phenyl)ethynyl)-7-azaspiro[3.5]nonan-7-yl)ethan-1-one] | 8.39 | 2 µg/mL (≈ 4.21 µM) | 4 µg/mL (≈ 8.43 µM) | – |
| C[C@H](O)c1nccn1Cc1cc(-c2ccc(C#CC3CC4(CCN(CC(N)=O)CC4)C3)cc2)on1 [Example 13, (S)-2-(2-((4-(3-((2-(1-hydroxyethyl)-1H-imidazol-1-yl)methyl)isoxazol-5-yl)phenyl)ethynyl)-7-azaspiro[3.5]nonan-7-yl)acetamide] | 8.30 | 1 µg/mL (≈ 2.11 µM) | 1 µg/mL (≈ 2.11 µM) | – |
| C[C@H](O)c1nccn1Cc1cc(-c2ccc(C#CC3CC4(CCN(C=O)CC4)C3)cc2)on1 [Example 17, (S)-2-((4-(3-((2-(1-hydroxyethyl)-1H-imidazol-1-yl)methyl)isoxazol-5-yl)phenyl)ethynyl)-7-azaspiro[3.5]nonane-7-carbaldehyde] | 8.08 | 1 µg/mL (≈ 2.25 µM) | 2 µg/mL (≈ 4.5 µM) | – |
| C[C@H](O)c1nccn1Cc1cc(-c2ccc(C#CC3CC4(CCN(C(N)=O)CC4)C3)cc2)on1 [Example 19, (S)-2-((4-(3-((2-(1-hydroxyethyl)-1H-imidazol-1-yl)methyl)isoxazol-5-yl)phenyl)ethynyl)-7-azaspiro[3.5]nonane-7-carboxamide] | 8.22 | 2 µg/mL (≈ 4.35 µM) | 4 µg/mL (≈ 8.7 µM) | – |
| C[C@H](O)c1nccn1Cc1cc(-c2ccc(C#CC3CC4(C3)CN(CC(N)=O)C4)cc2)on1 [Example 20, (S)-2-(6-((4-(3-((2-(1-hydroxyethyl)-1H-imidazol-1-yl)methyl)isoxazol-5-yl)phenyl)ethynyl)-2-azaspiro[3.3]heptan-2-yl)acetamide] | 8.17 | 2 µg/mL (≈ 4.49 µM) | 4 µg/mL (≈ 8.98 µM) | – |
| C[C@H](O)c1nccn1Cc1cc(-c2ccc(C#CC3=CCN(C=O)CC3)cc2)on1 [Example 57, (S)-4-((4-(3-((2-(1-hydroxyethyl)-1H-imidazol-1-yl)methyl)isoxazol-5-yl)phenyl)ethynyl)-3,6-dihydropyridine-1(2H)-carbaldehyde] | 7.53 | 2 µg/mL (≈ 4.97 µM) | – | 1 µg/mL (≈ 2.48 µM) |
| C[C@H](O)c1nccn1Cc1cc(-c2ccc(C#CC3=CCN(C(N)=O)CC3)cc2)on1 [Example 58, (S)-4-((4-(3-((2-(1-hydroxyethyl)-1H-imidazol-1-yl)methyl)isoxazol-5-yl)phenyl)ethynyl)-3,6-dihydropyridine-1(2H)-carboxamide] | 7.72 | 1 µg/mL (≈ 2.4 µM) | – | 1 µg/mL (≈ 2.4 µM) |
| C[C@H](O)c1nccn1Cc1cc(-c2ccc(C#CC3=CCN(CC(N)=O)CC3)cc2)on1 [Example 59, (S)-2-(4-((4-(3-((2-(1-hydroxyethyl)-1H-imidazol-1-yl)methyl)isoxazol-5-yl)phenyl)ethynyl)-3,6-dihydropyridin-1(2H)-yl)acetamide] | 7.62 | 2 µg/mL (≈ 4.64 µM) | – | 0.5 µg/mL (≈ 1.16 µM) |
| C[C@H](O)c1nccn1Cc1cc(-c2ccc(C#CC3=CCN(C(=O)N4CCOCC4)CC3)cc2)on1 [Example 60, (S)-(4-((4-(3-((2-(1-hydroxyethyl)-1H-imidazol-1-yl)methyl)isoxazol-5-yl)phenyl)ethynyl)-3,6-dihydropyridin-1(2H)-yl)(morpholino)methanone] | 7.60 | 2 µg/mL (≈ 4.1 µM) | – | 1 µg/mL (≈ 2.05 µM) |
| C[C@H](O)c1nccn1Cc1cc(-c2ccc(C#CC3=CCN(C(=O)c4ccccn4)CC3)cc2)on1 [Example 61, (S)-(4-((4-(3-((2-(1-hydroxyethyl)-1H-imidazol-1-yl)methyl)isoxazol-5-yl)phenyl)ethynyl)-3,6-dihydropyridin-1(2H)-yl)(pyridin-2-yl)methanone] | 7.94 | 1 µg/mL (≈ 2.09 µM) | – | 0.5 µg/mL (≈ 1.04 µM) |
| CC(=O)N1CC=C(C#Cc2ccc(-c3cc(Cn4ccnc4[C@H](C)O)no3)cc2)CC1 [Example 62, (S)-1-(4-((4-(3-((2-(1-hydroxyethyl)-1H-imidazol-1-yl)methyl)isoxazol-5-yl)phenyl)ethynyl)-3,6-dihydropyridin-1(2H)-yl)ethan-1-one] | 7.74 | 0.5 µg/mL (≈ 1.2 µM) | – | 0.5 µg/mL (≈ 1.2 µM) |
| C[C@H](O)c1nccn1Cc1cc(-c2ccc(C#CC3=CCN(C(=O)CO)CC3)cc2)on1 [Example 63, (S)-2-hydroxy-1-(4-((4-(3-((2-(1-hydroxyethyl)-1H-imidazol-1-yl)methyl)isoxazol-5-yl)phenyl)ethynyl)-3,6-dihydropyridin-1(2H)-yl)ethan-1-one] | 7.63 | 0.5 µg/mL (≈ 1.16 µM) | – | 0.5 µg/mL (≈ 1.16 µM) |
| C[C@H](O)c1nccn1Cc1cc(-c2ccc(C#CC3=CCN(C(=O)C4COCCO4)CC3)cc2)on1 (stereo partly drawn) [Example 64, (1,4-dioxan-2-yl)(4-((4-(3-((2-((S)-1-hydroxyethyl)-1H-imidazol-1-yl)methyl)isoxazol-5-yl)phenyl)ethynyl)-3,6-dihydropyridin-1(2H)-yl)methanone] | 7.72 | 1 µg/mL (≈ 2.05 µM) | – | 0.5 µg/mL (≈ 1.02 µM) |
| C[C@H](O)c1nccn1Cc1cc(-c2ccc(C#CC3=CCN(C(=O)C4CCCCO4)CC3)cc2)on1 (stereo partly drawn) [Example 65, (4-((4-(3-((2-((S)-1-hydroxyethyl)-1H-imidazol-1-yl)methyl)isoxazol-5-yl)phenyl)ethynyl)-3,6-dihydropyridin-1(2H)-yl)(tetrahydro-2H-pyran-2-yl)methanone] | 7.82 | 2 µg/mL (≈ 4.11 µM) | – | 0.5 µg/mL (≈ 1.03 µM) |
| C[C@H](O)c1nccn1Cc1cc(-c2ccc(C#CC3=CCN(C(=O)C4CCOCC4)CC3)cc2)on1 [Example 66, (S)-(4-((4-(3-((2-(1-hydroxyethyl)-1H-imidazol-1-yl)methyl)isoxazol-5-yl)phenyl)ethynyl)-3,6-dihydropyridin-1(2H)-yl)(tetrahydro-2H-pyran-4-yl)methanone] | 7.73 | 2 µg/mL (≈ 4.11 µM) | – | 1 µg/mL (≈ 2.06 µM) |
| COCCC(=O)N1CC=C(C#Cc2ccc(-c3cc(Cn4ccnc4[C@H](C)O)no3)cc2)CC1 [Example 67, (S)-1-(4-((4-(3-((2-(1-hydroxyethyl)-1H-imidazol-1-yl)methyl)isoxazol-5-yl)phenyl)ethynyl)-3,6-dihydropyridin-1(2H)-yl)-3-methoxypropan-1-one] | 7.64 | 1 µg/mL (≈ 2.17 µM) | – | 0.5 µg/mL (≈ 1.09 µM) |
| COCC(=O)N1CC=C(C#Cc2ccc(-c3cc(Cn4ccnc4[C@H](C)O)no3)cc2)CC1 [Example 68, (S)-1-(4-((4-(3-((2-(1-hydroxyethyl)-1H-imidazol-1-yl)methyl)isoxazol-5-yl)phenyl)ethynyl)-3,6-dihydropyridin-1(2H)-yl)-2-methoxyethan-1-one] | 7.67 | 1 µg/mL (≈ 2.24 µM) | – | 1 µg/mL (≈ 2.24 µM) |
| C[C@H](O)c1nccn1Cc1cc(-c2ccc(C#CC3=CCN(C(=O)C4(O)CC4)CC3)cc2)on1 [Example 69, (S)-(1-hydroxycyclopropyl)(4-((4-(3-((2-(1-hydroxyethyl)-1H-imidazol-1-yl)methyl)isoxazol-5-yl)phenyl)ethynyl)-3,6-dihydropyridin-1(2H)-yl)methanone] | 7.68 | 2 µg/mL (≈ 4.36 µM) | – | 2 µg/mL (≈ 4.36 µM) |
